Test system: 653999-131-R-J2-PDC complex spheroids, growth inhibition
Test: Anticancer human tumor 653999-131-R-J2-PDC patient-derived lung adenocarcinoma cell line growth inhibition [RAS]
Conditions: for IC50: curve of first compound; for viability, T/C: stronger effect = lower value
In short: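 Multi-cell-type spheroids: tumor cells plus HUVEC endothelial cells and mesenchymal stem cells. RAS-pathway inhibitors were combined with targeted agents, each dosed in half-log steps down from clinical Cmax, or from 10 microM when Cmax was unknown.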

[1] = second compound 0.00316 µM, first compound 0.0316 µM
[2] = second compound 0.00316 µM, first compound 0.1 µM
[3] = second compound 0.00316 µM, first compound 0.316 µM
[4] = second compound 0.00316 µM, first compound 1 µM
[5] = second compound 0.00316 µM, first compound 3.16 µM
[6] = second compound 0.00316 µM, first compound 10 µM
[7] = second compound 0.01 µM, first compound 0.0316 µM
[8] = second compound 0.01 µM, first compound 0.1 µM
[9] = second compound 0.01 µM, first compound 0.316 µM
[10] = second compound 0.01 µM, first compound 1 µM
[11] = second compound 0.01 µM, first compound 3.16 µM
[12] = second compound 0.01 µM, first compound 10 µM
[13] = second compound 0.0316 µM, first compound 0.0316 µM
[14] = second compound 0.0316 µM, first compound 0.1 µM
[15] = second compound 0.0316 µM, first compound 0.316 µM
[16] = second compound 0.0316 µM, first compound 1 µM
[17] = second compound 0.0316 µM, first compound 3.16 µM
[18] = second compound 0.0316 µM, first compound 10 µM
[19] = second compound 0.1 µM, first compound 0.0316 µM
[20] = second compound 0.1 µM, first compound 0.1 µM
[21] = second compound 0.1 µM, first compound 0.316 µM
[22] = second compound 0.1 µM, first compound 1 µM
[23] = second compound 0.1 µM, first compound 3.16 µM
[24] = second compound 0.1 µM, first compound 10 µM
[25] = second compound 0.316 µM, first compound 0.0316 µM
[26] = second compound 0.316 µM, first compound 0.1 µM
[27] = second compound 0.316 µM, first compound 0.316 µM
[28] = second compound 0.316 µM, first compound 1 µM
[29] = second compound 0.316 µM, first compound 3.16 µM
[30] = second compound 0.316 µM, first compound 10 µM
[31] = second compound 1 µM, first compound 0.0316 µM
[32] = second compound 1 µM, first compound 0.1 µM
[33] = second compound 1 µM, first compound 0.316 µM
[34] = second compound 1 µM, first compound 1 µM
[35] = second compound 1 µM, first compound 3.16 µM
[36] = second compound 1 µM, first compound 10 µM
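Also: spheroids exposed to the agents for seven days before the readout.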

SMILES: CC(=O)OC12COC1CC(O)C1(C)C(=O)C(O)C3=C(C)C(OC(=O)C(O)C(NC(=O)OC(C)(C)C)c4ccccc4)CC(O)(C(OC(=O)c4ccccc4)C21)C3(C)C (centres undefined) + C=CC(=O)N1CCN(c2nc(OCC3CCCN3C)nc3c(F)c(-c4nc(N)cc(C)c4C(F)(F)F)c(Cl)cc23)C(C)C1
- IC50 (second compound 0.00316 µM): > 10 µM
- IC50 (second compound 0.01 µM): > 10 µM
- IC50 (second compound 0.0316 µM): > 10 µM
- IC50 (second compound 0.1 µM): > 10 µM
- IC50 (second compound 0.316 µM): > 10 µM
- IC50 (second compound 1 µM): > 10 µM
- viability, T/C [1]: 56.6%
- viability, T/C [2]: 48.1%
- viability, T/C [3]: 56%
- viability, T/C [4]: 58.8%
- viability, T/C [5]: 61.7%
- viability, T/C [6]: 68%
- viability, T/C [7]: 63.7%
- viability, T/C [8]: 54.2%
- viability, T/C [9]: 57.9%
- viability, T/C [10]: 67.5%
- viability, T/C [11]: 62.6%
- viability, T/C [12]: 76%
- viability, T/C [13]: 58.4%
- viability, T/C [14]: 59.2%
- viability, T/C [15]: 49.2%
- viability, T/C [16]: 58.7%
- viability, T/C [17]: 73.4%
- viability, T/C [18]: 66.5%
- viability, T/C [19]: 59.5%
- viability, T/C [20]: 57.2%
- viability, T/C [21]: 53.7%
- viability, T/C [22]: 56.2%
- viability, T/C [23]: 72.5%
- viability, T/C [24]: 93.3%
- viability, T/C [25]: 55.7%
- viability, T/C [26]: 61.3%
- viability, T/C [27]: 54.5%
- viability, T/C [28]: 63.5%
- viability, T/C [29]: 79.8%
- viability, T/C [30]: 84.1%
- viability, T/C [31]: 53%
- viability, T/C [32]: 57.5%
- viability, T/C [33]: 62.3%
- viability, T/C [34]: 60.3%
- viability, T/C [35]: 62.9%
- viability, T/C [36]: 82.4%

SMILES: CC1(O)CCCC1n1c(=O)c(C(F)F)cc2cnc(NC3CCN(S(C)(=O)=O)CC3)nc21 (centres undefined) + C=CC(=O)N1CCN(c2nc(OCC3CCCN3C)nc3c(F)c(-c4nc(N)cc(C)c4C(F)(F)F)c(Cl)cc23)C(C)C1
- IC50 (second compound 0.00316 µM): 5.56 µM
- IC50 (second compound 0.01 µM): 5.34 µM
- IC50 (second compound 0.0316 µM): 5.2 µM
- IC50 (second compound 0.1 µM): 5.59 µM
- IC50 (second compound 0.316 µM): 5.13 µM
- IC50 (second compound 1 µM): 6.26 µM
- viability, T/C [1]: 74.3%
- viability, T/C [2]: 63.4%
- viability, T/C [3]: 57.5%
- viability, T/C [4]: 63.5%
- viability, T/C [5]: 75.9%
- viability, T/C [6]: 32.5%
- viability, T/C [7]: 82.5%
- viability, T/C [8]: 65.5%
- viability, T/C [9]: 56.6%
- viability, T/C [10]: 71.9%
- viability, T/C [11]: 68.8%
- viability, T/C [12]: 27.5%
- viability, T/C [13]: 77.6%
- viability, T/C [14]: 57.2%
- viability, T/C [15]: 63.4%
- viability, T/C [16]: 63.2%
- viability, T/C [17]: 68.5%
- viability, T/C [18]: 29%
- viability, T/C [19]: 78.4%
- viability, T/C [20]: 71.7%
- viability, T/C [21]: 54.4%
- viability, T/C [22]: 64.7%
- viability, T/C [23]: 76.3%
- viability, T/C [24]: 30.7%
- viability, T/C [25]: 86.3%
- viability, T/C [26]: 65.6%
- viability, T/C [27]: 67.2%
- viability, T/C [28]: 69.5%
- viability, T/C [29]: 66.4%
- viability, T/C [30]: 27.8%
- viability, T/C [31]: 78.3%
- viability, T/C [32]: 55.9%
- viability, T/C [33]: 71%
- viability, T/C [34]: 64.2%
- viability, T/C [35]: 68.4%
- viability, T/C [36]: 38.2%

— PubChem BioAssay AID2060886 (Molecular Pharmacology Branch, DTP, NCI, 2025)
